Experimental data reported in PubChem BioAssay (NCI).
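Growth conditions: 96-well plates. Treatment: test compound, 48 hours, 5 concentrations. Analysis: linear interpolation between bracketing concentrations; unreached endpoints set to highest concentration. The concentration for 50% growth inhibition is given as GI50. TGI: concentration producing complete growth inhibition.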

Tests used:
Assay in all cases: NCI tumour cell line growth inhibition, 48 h
[1] = test system: HOP-62 NSCLC
[2] = test system: NCI-H23 lung
[3] = test system: A549 NSCLC
[4] = test system: SF-295 CNS
[5] = test system: HCT-15 colon
[6] = test system: RPMI-8226 leukemia
[7] = test system: EKVX NSCLC
[8] = test system: MCF7 breast
[9] = test system: NCI-H522 lung
[10] = test system: HCC-2998 colon
[11] = test system: HL-60(TB) leukemia
[12] = test system: SNB-75 CNS
[13] = test system: SK-MEL-2 melanoma
[14] = test system: COLO 205 colon
[15] = test system: SK-OV-3 ovarian
[16] = test system: K-562 leukemia
[17] = test system: U251 CNS
[18] = test system: SF-268 CNS
[19] = test system: HT29 colon
[20] = test system: PC-3 prostate
[21] = test system: OVCAR-8 ovarian
[22] = test system: OVCAR-3 ovarian
[23] = test system: SR leukemia
[24] = test system: SN12C renal
[25] = test system: MOLT-4 leukemia
[26] = test system: UACC-62 melanoma
[27] = test system: UO-31 renal
[28] = test system: HS 578T breast
[29] = test system: NCI-H226 lung
[30] = test system: NCI/ADR-RES ovarian
[31] = test system: SW-620 colon
[32] = test system: A498 renal
[33] = test system: SK-MEL-5 melanoma
[34] = test system: MDA-MB-435
[35] = test system: MALME-3M melanoma
[36] = test system: HOP-92 NSCLC
[37] = test system: IGROV1 ovarian
[38] = test system: TK-10 renal
[39] = test system: UACC-257 melanoma
[40] = test system: T-47D breast
[41] = test system: BT-549 breast
[42] = test system: OVCAR-5 ovarian
[43] = test system: CCRF-CEM leukemia
[44] = test system: ACHN renal
[45] = test system: SK-MEL-28 melanoma
[46] = test system: SNB-19 CNS
[47] = test system: NCI-H460 lung
[48] = test system: SF-539 CNS
[49] = test system: HCT-116 colon
[50] = test system: 786-0 renal
[51] = test system: CAKI-1 renal
[52] = test system: LOX IMVI melanoma
[53] = test system: OVCAR-4 ovarian
[54] = test system: MDA-MB-231 breast
[55] = test system: DU-145 prostate
[56] = test system: M14 melanoma

## C[C@]12CCc3sc(Nc4ccc(O)cc4)nc3C1=CC[C@@H]1[C@@H]2CC[C@]2(C)C(=O)CC[C@@H]12
[1]
  GI50: 3.28 µM
  TGI: 12.6 µM
[2]
  GI50: 3.96 µM
  TGI: > 100 µM
[3]
  GI50: 4.42 µM
  TGI: > 100 µM
[4]
  GI50: 5.26 µM
  TGI: 35.9 µM
[5]
  GI50: 1.66 µM
  TGI: 4.4 µM
[6]
  GI50: 2.35 µM
  TGI: 7.07 µM
[7]
  GI50: 10.4 µM
  TGI: > 100 µM
[8]
  GI50: 1.66 µM
  TGI: 4.26 µM
[9]
  GI50: 1.42 µM
  TGI: 2.96 µM
[10]
  GI50: 4.11 µM
  TGI: > 100 µM
[11]
  GI50: 2.57 µM
  TGI: 7.27 µM
[12]
  GI50: 2.76 µM
  TGI: > 100 µM
[13]
  GI50: 6.98 µM
  TGI: > 100 µM
[14]
  GI50: 2 µM
  TGI: 3.9 µM
[15]
  GI50: 12.3 µM
  TGI: > 100 µM
[16]
  GI50: 2.96 µM
  TGI: > 100 µM
[17]
  GI50: 3.06 µM
  TGI: 21.9 µM
[18]
  GI50: 3.37 µM
  TGI: > 100 µM
[19]
  GI50: 2.13 µM
  TGI: 5.59 µM
[20]
  GI50: 2.49 µM
  TGI: 8.15 µM
[21]
  GI50: 3.22 µM
  TGI: > 100 µM
[22]
  GI50: 1.71 µM
  TGI: 3.38 µM
[23]
  GI50: 2.72 µM
  TGI: > 100 µM
[24]
  GI50: 2.91 µM
  TGI: > 100 µM
[25]
  GI50: 2.38 µM
  TGI: > 100 µM
[26]
  GI50: 1.76 µM
  TGI: 4.02 µM
[27]
  GI50: 1.54 µM
  TGI: 2.9 µM
[28]
  GI50: 3.38 µM
  TGI: > 100 µM
[29]
  GI50: 2.86 µM
  TGI: 8.52 µM
[30]
  GI50: 3.27 µM
  TGI: > 100 µM
[31]
  GI50: 2.08 µM
  TGI: 4.73 µM
[32]
  GI50: 14.2 µM
  TGI: 80.6 µM
[33]
  GI50: 4.33 µM
  TGI: 31.9 µM
[34]
  GI50: 2.08 µM
  TGI: 5.32 µM
[35]
  GI50: 1.81 µM
  TGI: 4.03 µM
[36]
  GI50: 2.39 µM
  TGI: 5.65 µM
[37]
  GI50: 1.99 µM
  TGI: 5.02 µM
[38]
  GI50: 2.01 µM
  TGI: 4.4 µM
[39]
  GI50: 1.86 µM
  TGI: 4.62 µM
[40]
  GI50: 1.95 µM
  TGI: 5.03 µM
[41]
  GI50: 3.13 µM
  TGI: > 100 µM
[42]
  GI50: 3.91 µM
  TGI: > 100 µM
[43]
  GI50: 2.47 µM
  TGI: > 100 µM
[44]
  GI50: 2.92 µM
  TGI: 9.29 µM
[45]
  GI50: 2.08 µM
  TGI: 4.75 µM
[46]
  GI50: 10.9 µM
  TGI: > 100 µM
[47]
  GI50: 3.01 µM
  TGI: 10.5 µM
[48]
  GI50: 1.76 µM
  TGI: 3.59 µM

## NC(CCCCNC(=O)CNC(=O)OCc1ccccc1)C(=O)NC(CCCCNC(=O)CNC(=O)OCc1ccccc1)C(=O)NC(CCCCNC(=O)CNC(=O)OCc1ccccc1)C(=O)NC(CCCCNC(=O)CNC(=O)OCc1ccccc1)C(=O)NC(CCCCNC(=O)CNC(=O)OCc1ccccc1)C(=O)NC(CCCCNC(=O)CNC(=O)OCc1ccccc1)C(=O)O (centres undefined)
[1]
  TGI: > 75 µM
[2]
  TGI: > 75 µM
[3]
  TGI: > 75 µM
[5]
  TGI: > 75 µM
[49]
  TGI: > 75 µM
[6]
  TGI: > 75 µM
[8]
  TGI: > 75 µM
[9]
  TGI: > 75 µM
[10]
  TGI: > 75 µM
[11]
  TGI: > 75 µM
[12]
  TGI: > 75 µM
[13]
  TGI: > 75 µM
[16]
  TGI: > 75 µM
[17]
  TGI: > 75 µM
[50]
  TGI: > 75 µM
[18]
  TGI: > 75 µM
[51]
  TGI: > 75 µM
[19]
  TGI: > 75 µM
[20]
  TGI: > 75 µM
[21]
  TGI: > 75 µM
[22]
  TGI: > 75 µM
[23]
  TGI: > 75 µM
[24]
  TGI: > 75 µM
[25]
  TGI: > 75 µM
[26]
  TGI: > 75 µM
[27]
  TGI: > 75 µM
[29]
  TGI: > 75 µM
[52]
  TGI: > 75 µM
[31]
  TGI: > 75 µM
[53]
  TGI: > 75 µM
[54]
  TGI: > 75 µM
[32]
  TGI: > 75 µM
[33]
  TGI: > 75 µM
[34]
  TGI: > 75 µM
[35]
  TGI: > 75 µM
[55]
  TGI: > 75 µM
[37]
  TGI: > 75 µM
[38]
  TGI: > 75 µM
[39]
  TGI: > 75 µM
[40]
  TGI: > 75 µM
[41]
  TGI: > 75 µM
[42]
  TGI: > 75 µM
[43]
  TGI: > 75 µM
[44]
  TGI: > 75 µM
[45]
  TGI: > 75 µM
[56]
  TGI: > 75 µM
[46]
  TGI: > 75 µM
[47]
  TGI: > 75 µM
